Results taken from EP1366764A1, “Method of screening for calcium receptor-active molecules” (The Brigham & Women's Hospital, Inc., priority 1993, dated 1994).
Read-outs that look alike come from different tables or passages of the source.

Tests used:
[1] = Hypocalcemic activity in vivo (serum or whole blood ionized Ca2+, PTH) in rats
Description: Male Sprague-Dawley rates (200 g) were maintained on a low calcium diet for one week prior to receiving test substance or vehicle as control.
Rats (male, Sprague-Dawley, 250-300 g) were fed standard rat chow and fasted overnight prior to the experiment.

[2] = Serum ionized Ca2+ in the 5/6 nephrectomized rat (model of secondary hyperparathyroidism); assay type: in vivo, rats; settings: 10 mg/kg i.p.
Description: An accepted and widely used animal model of secondary hyperparathyroidism arising from chronic renal failure is the 5/6 nephrectomized rat. Animals receiving such surgery become initially hypocalcemic and, to maintain serum Ca^2+ levels, there is a compensatory hyperplasia of the parathyroid glands and elevated levels of circulating PTH. Male Sprague-Dawley rats (250 g) received a 5/6 nephrectomy and were allowed to recover for 2 weeks. At this time they were normocalcemic (due to elevated levels of serum PTH).

rat osteoclasts = assay: Measurement of [Ca2+]i in single rat osteoclasts (indo-1); assay type: cell-based; settings: for EC50: Osteoclast
[3] = Serum ionized Ca2+ in parathyroidectomized rats; assay type: in vivo
Description: To determine the primary target tissue upon which NPS 467 acts to cause a hypocalcemic response, the para thyroid glands in rats were surgically removed.

[4] = Net positive charge of the molecule; assay type: physicochemical
rMTC 6-23 cells = assay: Measurement of cytosolic Ca2+ in C-cells (fura-2); assay type: cell-based, rat; settings: for EC50: read-out: EC50 (C-CELL)
human parathyroid cells = assay: Measurement of [Ca2+]i (fura-2) in human parathyroid cells; assay type: cell-based
Description: Human parathyroid glands, obtained from patients undergoing surgical removal of parathyroid tissue for primary or uremic hyperparathyroidism (HPT), were treated similarly to bovine tissue. Glands were trimmed of excess fat and connective tissue and then minced with a fine scissors into approximate cubes of 2-3 mm. Dissociated parathyroid cells were prepared by collagenase digestion. Dissociated cells were then purified by centrifugation in Percoll buffer. The resultant parathyroid cell preparation was essentially devoid of red blood cells, adipocytes, and capillary tissue as assessed by phase contrast microscopy and Sudan black B staining. Dissociated and purified parathyroid cells were present as small clusters containing 5 to 20 cells.
The cells were then pelleted, resuspended in the same buffer lacking the ester, and incubated a further 15 min at 37°C. The cells were subsequently washed twice with PCB containing 0.5 mM CaCl2 and 0.5% BSA and maintained at room temperature (about 20°C). […] The concentration of cells in the cuvette used for fluorescence recording was 1-2 x 10^6/ml.
The fluorescence of indicator-loaded cells was measured at 37°C in a spectrofluorimeter (Biomedical Instrumentation Group, University of Pennsylvania, Philadelphia, PA) equipped with a thermostated cuvette holder-and magnetic stirrer using excitation and emission wavelengths of 340 and 510 nm, respectively. […]

Ca^2+ receptor = biological target: T1, Ca^2+ receptor (Homo sapiens, UniProt P41180); assay: Cl- current in Xenopus oocytes injected with human parathyroid cell mRNA; assay type: cell-based; settings: oocytes injected with mRNA from human parathyroid cells
T1 construct: Oocytes were injected with poly(A)^+-enriched mRNA from human parathyroid tissue; expressed in transfected cells; host or cells: Xenopus laevis oocytes injected with poly(A)+ mRNA from human hyperplastic parathyroid glands (secondary HPT)
T1 sequence (P41180 20-1078): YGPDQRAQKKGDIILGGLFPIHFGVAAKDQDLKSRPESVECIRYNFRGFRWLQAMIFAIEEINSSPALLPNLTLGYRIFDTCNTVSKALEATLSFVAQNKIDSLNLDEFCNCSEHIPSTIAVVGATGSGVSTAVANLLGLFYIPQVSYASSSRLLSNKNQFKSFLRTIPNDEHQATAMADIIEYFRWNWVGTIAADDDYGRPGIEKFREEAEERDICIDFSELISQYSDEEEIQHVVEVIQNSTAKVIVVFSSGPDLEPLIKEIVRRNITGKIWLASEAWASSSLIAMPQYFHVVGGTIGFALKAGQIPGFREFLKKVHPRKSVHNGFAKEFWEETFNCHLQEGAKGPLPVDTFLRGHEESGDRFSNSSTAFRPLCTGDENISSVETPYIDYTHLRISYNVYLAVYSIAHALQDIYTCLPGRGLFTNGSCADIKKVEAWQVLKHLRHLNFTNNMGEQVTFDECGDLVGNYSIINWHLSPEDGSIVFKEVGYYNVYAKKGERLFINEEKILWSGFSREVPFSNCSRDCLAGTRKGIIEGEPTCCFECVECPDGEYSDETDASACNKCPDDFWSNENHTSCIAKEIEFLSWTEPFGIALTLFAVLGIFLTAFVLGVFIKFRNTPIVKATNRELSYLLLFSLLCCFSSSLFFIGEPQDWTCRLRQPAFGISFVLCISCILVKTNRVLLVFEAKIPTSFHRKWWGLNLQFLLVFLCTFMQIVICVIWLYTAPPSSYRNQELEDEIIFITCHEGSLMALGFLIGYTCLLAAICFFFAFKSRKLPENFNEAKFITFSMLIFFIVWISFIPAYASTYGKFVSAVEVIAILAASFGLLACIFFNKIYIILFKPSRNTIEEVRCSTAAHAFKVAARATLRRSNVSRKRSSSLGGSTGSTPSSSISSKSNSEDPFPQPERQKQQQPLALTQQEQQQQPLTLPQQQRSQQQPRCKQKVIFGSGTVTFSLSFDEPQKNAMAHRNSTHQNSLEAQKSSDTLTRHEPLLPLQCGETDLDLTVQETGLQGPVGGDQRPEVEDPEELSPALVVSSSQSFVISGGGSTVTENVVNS

[5] = rat osteoclasts, indo-1, "inactive" = no increase in cytosolic Ca2+ at 1 mM or 1-5 mM (footnote)
[6] = rMTC 6-23 cells, fura-2, "inactive" = no increase in cytosolic Ca2+ at 1 mM or 1-5 mM (footnote)

With `COc1cccc(C(C)NCCCc2ccccc2)c1` (racemic) [NPS 467] the “return of hypocalcemic effect toward control” value ([1]; 25 mg/kg (Fig. 40)) was “returned toward control levels after 24 hours”, the “time of maximal hypocalcemic effect” value ([1]; 25 mg/kg (Fig. 40)) was “maximal within three hours” and the “serum albumin or phosphate levels” value ([1]; any of the doses examined) was “no change”. The “circulating levels of PTH” value ([1]; doses effective in lowering blood Ca2+, preliminary studies) was “dose-dependent reduction” and the “serum or whole blood Ca^2+” value ([1]; i.p., low calcium diet, three hours after administration) was “dose-dependent reduction”.

With `COc1cccc([C@@H](C)NCCCc2ccccc2)c1` (single isomer, unassigned) [NPS R-467] the “time to fall in serum ionized Ca^2+” value [2] was ≤ 2 h, the “serum ionized Ca^2+ levels, % of controls” value ([2]; 5/6 nephrectomized rats, 2 weeks after surgery) was 83 % of controls and the “decrease in serum ionized Ca^2+ from the control level” value ([1]; 10 mg/kg i.p., single dose, rats on normal calcium-replete diet, at maximum) was 22%. The “time serum ionized Ca^2+ remained depressed” value ([1]; 10 mg/kg i.p., normal diet) was “up to 6 hours”, the “time to maximal fall in serum ionized Ca^2+” value ([1]; 10 mg/kg i.p., normal diet) was ≤ 1 h and the “potency in lowering serum Ca^2+ in vivo, R- versus S-isomer” value ([1]; each compound at 5 mg/kg body weight) was “more potent than the S-isomer”. For the same compound, the “serum levels of ionized Ca^2+ after oral dosing” value ([1]; single oral dose in corn oil by gavage, three hours, fasted rats) was “dose-dependent reduction”, the EC50 (rat osteoclasts; [5]) was > 100 µM and the “change in serum ionized Ca^2+ levels” value ([3]; 10 mg/kg i.p., single dose, over 6 hours) was “did not cause any change”.

In the case of `NCCCCCCCCCCCCN` [1,12-diaminododecane (DADD), 1,12-diaminododecane], the “Net (+) Charge” value ([4]; at physiological pH (pH 7.3)) is reported as “+2”.

In the case of `NC(=O)C[C@H](NC(=O)Cc1c[nH]c2cccc(O)c12)C(=O)NCCCCCNCCCNCCCNC(=O)[C@@H](N)CCCN=C(N)N` [Argiotoxin-659], the “Net (+) Charge” value ([4]; at physiological pH (pH 7.3)) is reported as “+4”.

In the case of `NCCCNCCCCNCCCNCCCN(O)CCCNC(=O)Cc1c[nH]c2cccc(O)c12` [NPS 015], the “EC50 (C-CELL)” value (rMTC 6-23 cells; [6]) is reported as “inactive” and the IC50 (rMTC 6-23 cells; read-out: IC50 for block of extracellular Ca^2+-induced increases in [Ca^2+]i, rMTC cells, block of the L-type voltage-sensitive Ca2+ channel) is reported as 3 µM.

In the case of `NCCCNCCCCNCCCNCCCN(O)CCCNC(=O)Cc1c[nH]c2ccccc12` [NPS 017], the “EC50 (OSTEOCLAST)” value (rat osteoclasts; [5]) is reported as “inactive”.

With `NCCCNCCCCNCCCNCCCNCCCNC(=O)Cc1c[nH]c2ccccc12` [NPS 019] the EC50 (rMTC 6-23 cells; [6]) was 5 µM.

In the case of `NCCCN(CCCN)CCCN(CCCN)CCCCN(CCCN)CCCN(CCCN)CCCN` [NPS 381, N^1,N^1,N^5,N^10,N^14,N^14-hexakis-(3-aminopropyl) spermine], the “Net (+) Charge” value ([4]; at physiological pH (pH 7.3)) is reported as “+10”.

With `NCCCN1CCCN(CCCN)CCN(CCCN)CCCN(CCCN)CC1` [NPS 383] the “Net (+) Charge” value ([4]; at physiological pH (pH 7.3)) was “+8”.

In the case of `COc1cccc([C@@H](C)NCCCc2ccccc2Cl)c1` [NPS R-568], the EC50 (human parathyroid cells; read-out: EC50 for the mobilization of intracellular Ca^2+ / increase in [Ca^2+]i, human parathyroid cells (adenoma)) is reported as 3 µM, the ED50 ([1]; Rattus norvegicus, read-out: ED50 for decrease in the levels of serum Ca^2+, oral administration to rats) is reported as 7 mg/kg and the EC50 (rat osteoclasts; [5]) is reported as 200 µM. For the same compound, the EC50 (rMTC 6-23 cells; Rattus norvegicus, rMTC 6-23 cells, fura-2, "inactive" = no increase in cytosolic Ca2+ at 1 mM or 1-5 mM (footnote)) was > 300 µM and the “hypocalcemic response in parathyroidectomized rats” value ([3]; oral administration) was “fails to elicit a hypocalcemic response”.

With `NCCNCCNCCNCCN` [Tetraethylenepentamine (TEPA), Tetraethylenepentamine] the “Net (+) Charge” value ([4]; at physiological pH (pH 7.3)) was “+5”.

With `NCCNCCNCCN` [Triethylenetramine (TETA), triethylenetetramine] the “Net (+) Charge” value ([4]; at physiological pH (pH 7.3)) was “+4”.

In the case of `NC[C@H]1O[C@H](O[C@H]2[C@H](O)[C@@H](O[C@H]3O[C@H](CO)[C@@H](O)[C@H](N)[C@H]3O)[C@H](N)C[C@@H]2N)[C@H](N)[C@@H](O)[C@@H]1O` [bekanamycin], the “Net (+) Charge” value ([4]; at physiological pH (pH 7.3)) is reported as “+5”.

For `C1CNCCNCCNCCNCCNCCN1` [hexacyclen, 1,4,7,10,13,16-hexaaza-cyclooctadecane], the “Net (+) Charge” value ([4]; at physiological pH (pH 7.3)) was “+6” and the “concentration causing the mobilization of intracellular Ca^2+ in oocytes” value (Ca^2+ receptor) was 135 µM.

In the case of `CCC[C@@H]1C[C@@H](C(=O)N[C@@H]([C@H]2O[C@H](SC)[C@H](O)[C@@H](O)[C@H]2O)[C@@H](C)O)N(C)C1` [lincomycin], the “Net (+) Charge” value ([4]; at physiological pH (pH 7.3)) is reported as “+1”.

With `NCCCCNCCCN` [spermidine] the “Net (+) Charge” value ([4]; at physiological pH (pH 7.3)) was “+3” and the “increase in [Ca^2+]i, % of that evoked by a maximal concentration of extracellular Ca^2+” value (rat osteoclasts; 1 mM) was “about 10%”.

With `NCCCNCCCCNCCCN` [spermine] the “increase in [Ca^2+]i” value (human parathyroid cells; 300 µM) was “only a small increase in [Ca^2+]i”, the “effect on the response to subsequent extracellular Ca^2+” value (rat osteoclasts; neomycin 10 mM (25 mM extracellular Ca2+), spermine 20 mM, verapamil 100 µM) was “did depress the response to extracellular Ca^2+” and the “increases in [Ca^2+]i in rat osteoclasts” value (rat osteoclasts; neomycin 10 mM, spermine 10 or 20 mM) was “Neither neomycin (10 mM) nor spermine (10 or 20 mM) caused increases”. For the same compound, the “increase in [Ca^2+]i in osteoclasts” value (rat osteoclasts; neomycin B 1 mM, spermine 1 or 5 mM) was “failed to evoke any increase in [Ca^2+]i” and the “effect on basal [Ca^2+]i” value (rMTC 6-23 cells; spermine 10 mM, neomycin B 5 mM) was “without effect”.

In the case of `[H]/N=C(/N)N[C@H]1[C@H](O)[C@@H](O)[C@H](O[C@@H]2O[C@@H](C)[C@](O)(C=O)[C@H]2O[C@@H]2O[C@@H](CO)[C@H](O)[C@@H](O)[C@@H]2NC)[C@@H](N/C(N)=N\[H])[C@@H]1O` [streptomycin], the “Net (+) Charge” value ([4]; at physiological pH (pH 7.3)) is reported as “+3”.

In the case of `COc1ccc(CCN(C)CCCC(C#N)(c2ccc(OC)c(OC)c2)C(C)C)cc1OC` (stereo not drawn) [verapamil], the “increase in [Ca^2+]i” value (rat osteoclasts; 100 µM) is reported as “caused no detectable increase in [Ca^2+]i”.

In the case of “N^1,N^1,N^5,N^14,N^14-tetrakis-(3-aminopropyl)spermine [NPS 382]”, the “Net (+) Charge” value ([4]; pH 7.3) is reported as “+8” and the “concentration causing the mobilization of intracellular Ca^2+ in oocytes” value (Ca^2+ receptor) is reported as 5000 µM.

For gentamicin, the “Net (+) Charge” value ([4]; at physiological pH (pH 7.3)) was “+5”.
